Test results: patent US7078499B2, “Nucleotide analogues comprising a reporter moiety and a polymerase enzyme blocking moiety” (GE Healthcare UK Limited, priority 2000, dated 2006)

Tests used:
Type in all cases: biochemical
HIV RT = biological target: T1, HIV RT (Human immunodeficiency virus type 1 group M subtype B, UniProt P03366); assay: Mesophilic reverse transcriptase reaction, HIV RT; parameters: key to result of incorporation (termination / further chain extension): T: Incorporation results in termination; E: Incorporation permits further chain extension; T/E: Predominant product is primer extended by one base, but evidence of some further extension also observed; key to primer extended by at least one base within assay time (grade): −: No extension within assay time; +/−: up to 25% of primer extended by at least one base within assay time; +: up to 50% of primer extended by at least one base within assay time; ++: up to 75% of primer extended by at least one base within assay time; +++: essentially all primer extended by at least one base within assay time; details: RNA template, final enzyme concentration of 4 units/μl
T1 construct: AMV RT; MuLV RT; SAV RT and HIV RT all from APBiotech; purchased APBiotech
Protocol: (§1) DNA polymerase assays were performed using Sequence 1 as primer and Sequence 2 as template. • Sequence 1 5′[Cy3]TAACTCATTAACAGGATC 3′ • Sequence 2 5′AT TCGCGGTATTCTGGTATGAAGCTTTTAGATCCTGTTAATGAGTTA GTA3′
(§2) The template (Sequence 2) was designed such that the base (underlined) immediately adjacent to the 3′ end of the hybridised primer is complementary to the nucleotide test compound. Nucleotide test compounds were compounds (6) (4′-C-(glycylaminomethyl)thymidine triphosphate), (8) (4′-C-(N-trifluoroacetyaminomethyl)thymidine triphosphate) and (9) (4′-C-(aminomethyl)thymidine triphosphate) as described above.
(§3) Primer extension reactions were performed using the above primers in the presence of 40 to 80 μM of nucleotide triphosphates. Positive control reactions contained all four native nucleotide triphosphates. For the other reactions the TTP was replaced with either a 2:1 ratio of […] for the terminator control, or entirely by the test compound The enzymes were used at a final concentration of 0.175 units/μl and a magnesium ion concentration of 2.5 mM in buffers supplied by the manufacturer. The primer and template concentrations were 0.5 pmol/μl and 2 pmol/μl respectively.
(§4) Extension reactions preformed with mesophilic polymerases were carried out by mixing all the components of the reaction except the enzyme and heating to 70° C. for 5 min. After the reactions had cooled to room temperature 0.175 units of the enzyme were added and the reactions heated to 37° C. for 20–40 minutes. The following enzymes were used: T7 DNA polymerase (T7); Sequenase 2™ (Seq); Klenow fragment of DNA polymerase 1 (Klen); phi-29 DNA polymerase (Phi-29); T4 DNA polymerase (T4) (all from AP Biotech) and Bst DNA polymerase (Bst) (Cambio Ltd).
Reverse transcriptase reactions were performed essentially as described above for thermophilic and mesophilic enzymes. The template for these reactions was the RNA equivalent of sequence 2. All the thermophilic enzymes were assayed in Tth reaction buffer (Cambio Ltd, Cambridge UK) containing 2.5 mM Manganese ions. The following enzymes were used: Thermosequenase (TS1); Thermosequenase II (TSII); delta Tts DNA polymerase (deltaTts); delta Tts D DNA polymerase (deltaTtsD) (all from APBiotech); Retrotherm reverse transcriptase (Retroth) (Cambio Ltd); Tth DNA polymerase (Tth) (Cambio Ltd.).
Mesophilic reverse transcriptases (AMV RT; MuLV RT; SAV RT and HIV RT all from APBiotech) were assayed in their respective buffers with a final enzyme concentration of 4 units/μl.
(§5) The reactions were stopped by adding a 0.5 volume aliquot of 80% formamide containing 0.1% (w/v) bromophenol blue and 0.1% (w/v) cresol blue. The reaction products were separated by denaturing gel electrophoresis at a constant power of 45 W on 16% polyacrylamide gels containing 50% urea.
(§6) Gels were scanned for Cy3 fluorescence on a Molecular Dynamics Fluorimager and the data analysed using Molecular Dynamics ImageQuant 5 software.
(§7) The incorporation of a test nucleotide triphosphate results in the appearance on a polyacrylamide gel of a single band corresponding to a single base extension product. If, however, the enzyme adds additional bases then further bands would be observed that corresponded to either the full-length product or positions of other complementary bases in the template.

AMV RT = assay: Mesophilic reverse transcriptase reaction, AMV RT; parameters: key: −: No extension within assay time; +/−: up to 25% of primer extended by at least one base within assay time; +: up to 50% of primer extended by at least one base within assay time; ++: up to 75% of primer extended by at least one base within assay time; +++: essentially all primer extended by at least one base within assay time; details: RNA template, final enzyme concentration of 4 units/μl
Protocol: as §1, §2, §3, §4
Reverse transcriptase reactions were performed essentially as described above for thermophilic and mesophilic enzymes. The template for these reactions was the RNA equivalent of sequence 2. […]
Gels were scanned for Cy3 fluorescence on a Molecular Dynamics Fluorimager and the data analysed using Molecular Dynamics ImageQuant 5 software. […]

Bst DNA polymerase = biological target: T2, Bst DNA polymerase (Geobacillus stearothermophilus, UniProt P52026); assay: Mesophilic DNA polymerase primer extension, Bst; parameters: key to result of incorporation (termination / further chain extension): T: Incorporation results in termination; E: Incorporation permits further chain extension; T/E: Predominant product is primer extended by one base, but evidence of some further extension also observed; details: DNA template, 37° C. for 20–40 minutes; for primer extended by at least one base within assay time (grade): TTP replaced entirely by test compound
T2 construct: purchased Cambio Ltd
T2 sequence (P52026 1-876): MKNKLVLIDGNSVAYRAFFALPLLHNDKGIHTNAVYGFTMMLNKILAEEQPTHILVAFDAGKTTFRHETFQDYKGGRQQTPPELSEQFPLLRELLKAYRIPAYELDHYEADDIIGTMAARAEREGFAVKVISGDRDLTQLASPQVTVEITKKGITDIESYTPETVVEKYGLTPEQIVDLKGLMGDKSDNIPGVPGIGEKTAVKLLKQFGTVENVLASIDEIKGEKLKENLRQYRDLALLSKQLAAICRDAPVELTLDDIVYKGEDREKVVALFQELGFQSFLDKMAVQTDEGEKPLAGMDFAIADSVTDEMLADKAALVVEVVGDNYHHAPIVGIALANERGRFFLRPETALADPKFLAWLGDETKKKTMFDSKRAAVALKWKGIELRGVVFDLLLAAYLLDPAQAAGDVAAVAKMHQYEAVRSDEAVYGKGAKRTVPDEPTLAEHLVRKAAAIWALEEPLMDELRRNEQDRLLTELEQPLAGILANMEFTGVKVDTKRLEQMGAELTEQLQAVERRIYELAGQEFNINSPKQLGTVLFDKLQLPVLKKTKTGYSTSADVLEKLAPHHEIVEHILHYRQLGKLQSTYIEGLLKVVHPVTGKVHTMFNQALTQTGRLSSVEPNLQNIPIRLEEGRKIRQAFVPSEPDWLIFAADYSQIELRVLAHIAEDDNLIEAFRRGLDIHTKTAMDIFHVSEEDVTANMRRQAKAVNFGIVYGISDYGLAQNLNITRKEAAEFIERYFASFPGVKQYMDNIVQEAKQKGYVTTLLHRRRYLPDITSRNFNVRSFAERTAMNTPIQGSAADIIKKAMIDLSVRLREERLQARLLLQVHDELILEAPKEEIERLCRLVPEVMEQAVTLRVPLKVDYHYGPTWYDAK
Protocol: as §1, §2, §3, §4, §5, §6, §7

Compound | primer extended by at least one base within assay time (grade) (HIV RT) | result of incorporation (termination / further chain extension) (HIV RT) | primer extended by at least one base within assay time (grade) (AMV RT) | result of incorporation (termination / further chain extension) (Bst DNA polymerase) | primer extended by at least one base within assay time (grade) (Bst DNA polymerase)
4′-C-(Aminomethyl)thymidine triphosphate [compound (9)] | +++ | E | − | T | + (up to 50% of primer extended by at least one base within assay time)
4′-C-(Glycylaminomethyl)thymidine triphosphate [compound (6)] | +++ | E | − | T | + (up to 50% of primer extended by at least one base within assay time)
Cc1cn([C@H]2C[C@H](O)[C@@](CNC(=O)C(F)(F)F)(COP(=O)(O)OP(=O)(O)OP(=O)(O)O)O2)c(=O)[nH]c1=O [compound (8), 4′-C-(N-trifluoroacetylaminomethyl)thymidine triphosphate] | +++ | E | − | T | + (up to 50% of primer extended by at least one base within assay time)
